According to US20250344698A1, “A METHOD OF CONTROLLING WEEDS” (SYNGENTA CROP PROTECTION AG, priority 2022, published 2025):

Experiments:
Assay type in all cases: in vivo
[1] = tested on: Amaranthus palmeri population homozygous for a methionine at codon 128 in PPX2L ('128M'); assay: Postemergence glasshouse test, dead or alive assessment, 128M population; details: 14 days after application; for use rate achieving complete control (i.e. no surviving plants): '128M' population, postemergence; for Average % Survival of 14 repetitions: R128M
Description: (§1) The commercial standard PPO inhibitor fomesafen and compound 8 of the present application were applied to three Amaranthus palmeri populations in order to determine the impact of mutations at codon 128 in PPX2L from the wild-type arginine to a glycine or methionine.
(§2) Seeds were sown in seed trays containing ericaceous compost and covered with vermiculite. When approximately 1 inch in height plants were transplanted 1 per pot into 3 inch diameter pots containing ericaceous compost. The pots were watered and maintained in a glasshouse providing a 16 H photoperiod of 180 μmol m^−2 s^−1 with temperatures of 24° C. day and 18° C. night and 65% relative humidity until 3 inches tall at which point the herbicides were applied at the use rates specified in Table 1 below to 14 individual plants per rate of each of the biotypes.
(§3) All treatments were applied as dilutions in reverse osmosis water and with the commercial adjuvant Adigor® at 0.5% by volume. Prior to dilution with water compound 8 was initially dissolved to a 5% solution in a solvent mixture comprising 11.12% Emulsogen EL 360, 44.44% Dowanol DPM and 44.44% N-methyl pyrrolidone. Herbicide applications were carried out in a track sprayer with a flat fan nozzle applying the herbicide treatments at a rate of 200 L/ha^−1.
(§4) After treatment, the plants were watered and maintained in a glasshouse providing a 16 H photoperiod of 180 μmol m^−2 s^−1 with temperatures of 24° C. day and 18° C. night and 65% relative humidity until 14 days after application at which point they were assessed on a ‘dead or alive’ basis. The plants still alive at this point were classed as surviving the herbicide application and the averaged results of this assessment are presented in Table 1.

[2] = tested on: Amaranthus palmeri known PPO inhibitor sensitive population ('Sensitive'); assay: Postemergence glasshouse test, dead or alive assessment, PPO inhibitor sensitive population; details: 14 days after application; for use rate achieving complete control (i.e. no surviving plants): 'Sensitive' population, postemergence; for Average % Survival of 14 repetitions: Sensitive
Description: as §1, §2, §3, §4

[3] = tested on: Amaranthus palmeri population homozygous for a glycine at codon 128 in PPX2L ('128G'); assay: Postemergence glasshouse test, dead or alive assessment, 128G population; details: 14 days after application; for Average % Survival of 14 repetitions: R128G
Description: as §1, §2, §3, §4

| Compound | use rate achieving complete control (i.e. no surviving plants) [1] [g ai/ha^−1] | Average % Survival of 14 repetitions ([1]; 0.25 g ai/ha^−1 postemergence) [%] | Average % Survival of 14 repetitions ([1]; 0.5 g ai/ha^−1 postemergence) [%] | Average % Survival of 14 repetitions ([1]; 1 g ai/ha^−1 postemergence) [%] | Average % Survival of 14 repetitions ([1]; 2 g ai/ha^−1 postemergence) [%] | Average % Survival of 14 repetitions ([1]; 4 g ai/ha^−1 postemergence) [%] | Average % Survival of 14 repetitions ([1]; 8 g ai/ha^−1 postemergence) [%] | Average % Survival of 14 repetitions ([1]; 16 g ai/ha^−1 postemergence) [%] | Average % Survival of 14 repetitions ([1]; 32 g ai/ha^−1 postemergence) [%] | Average % Survival of 14 repetitions ([1]; 64 g ai/ha^−1 postemergence) [%] | Average % Survival of 14 repetitions ([1]; 128 g ai/ha^−1 postemergence) [%] | use rate achieving complete control (i.e. no surviving plants) [2] [g ai/ha^−1] | Average % Survival of 14 repetitions ([2]; 0.25 g ai/ha^−1 postemergence) [%] | Average % Survival of 14 repetitions ([2]; 0.5 g ai/ha^−1 postemergence) [%] | Average % Survival of 14 repetitions ([2]; 1 g ai/ha^−1 postemergence) [%] | Average % Survival of 14 repetitions ([2]; 2 g ai/ha^−1 postemergence) [%] | Average % Survival of 14 repetitions ([2]; 4 g ai/ha^−1 postemergence) [%] | Average % Survival of 14 repetitions ([2]; 8 g ai/ha^−1 postemergence) [%] | Average % Survival of 14 repetitions ([2]; 16 g ai/ha^−1 postemergence) [%] | Average % Survival of 14 repetitions ([2]; 32 g ai/ha^−1 postemergence) [%] | other results |
| --- | --- | --- | --- | --- | --- | --- | --- | --- | --- | --- | --- | --- | --- | --- | --- | --- | --- | --- | --- | --- | --- |
| CS(=O)(=O)NC(=O)c1cc(Oc2ccc(C(F)(F)F)cc2Cl)ccc1[N+](=O)[O-] [Fomesafen] | 128 | 100 | 100 | 100 | 100 | 100 | 100 | 93 | 43 | 21 | 0 | 8 | 100 | 100 | 93 | 71 | 14 | 0 | 0 | 0 | Average % Survival of 14 repetitions ([2]; 64 g ai/ha^−1 postemergence): 0%; Average % Survival of 14 repetitions ([2]; 128 g ai/ha^−1 postemergence): 0%; individuals killed ([3]; '128G' population, 128 g ai/ha^−1): 5/14; Average % Survival of 14 repetitions ([3]; 0.25 g ai/ha^−1 postemergence): 100%; Average % Survival of 14 repetitions ([3]; 0.5 g ai/ha^−1 postemergence): 100%; Average % Survival of 14 repetitions ([3]; 1 g ai/ha^−1 postemergence): 100%; Average % Survival of 14 repetitions ([3]; 2 g ai/ha^−1 postemergence): 100%; Average % Survival of 14 repetitions ([3]; 4 g ai/ha^−1 postemergence): 100%; Average % Survival of 14 repetitions ([3]; 8 g ai/ha^−1 postemergence): 100%; Average % Survival of 14 repetitions ([3]; 16 g ai/ha^−1 postemergence): 100%; Average % Survival of 14 repetitions ([3]; 32 g ai/ha^−1 postemergence): 93%; Average % Survival of 14 repetitions ([3]; 64 g ai/ha^−1 postemergence): 36%; Average % Survival of 14 repetitions ([3]; 128 g ai/ha^−1 postemergence): 36% |
| CCOC(=O)C1(C)CC(c2cc(-n3c(=O)cc(C(F)(F)F)n(C)c3=O)c(F)cc2Cl)=NO1 (stereo not drawn) [Compound 8, 3-(2-chloro-4-fluoro-5-(3-methyl-2,6-dioxo-4-trifluoromethyl-3,6-dihydropyrimidin-1(2H)-yl)phenyl)-5-methyl-4,5-dihydroisoxazole-5-carboxylic acid ethyl ester] | 16 | 100 | 100 | 100 | 100 | 79 | 57 | 0 | 0 | 0 | 0 | 8 | 100 | 100 | 50 | 43 | 14 | 0 | 0 | 0 | Average % Survival of 14 repetitions ([2]; 64 g ai/ha^−1 postemergence): 0%; Average % Survival of 14 repetitions ([2]; 128 g ai/ha^−1 postemergence): 0%; use rate achieving complete control (i.e. no surviving plants) ([3]; '128G' population, postemergence): 16 g ai/ha^−1; Average % Survival of 14 repetitions ([3]; 0.25 g ai/ha^−1 postemergence): 100%; Average % Survival of 14 repetitions ([3]; 0.5 g ai/ha^−1 postemergence): 100%; Average % Survival of 14 repetitions ([3]; 1 g ai/ha^−1 postemergence): 100%; Average % Survival of 14 repetitions ([3]; 2 g ai/ha^−1 postemergence): 100%; Average % Survival of 14 repetitions ([3]; 4 g ai/ha^−1 postemergence): 93%; Average % Survival of 14 repetitions ([3]; 8 g ai/ha^−1 postemergence): 50%; Average % Survival of 14 repetitions ([3]; 16 g ai/ha^−1 postemergence): 0%; Average % Survival of 14 repetitions ([3]; 32 g ai/ha^−1 postemergence): 0%; Average % Survival of 14 repetitions ([3]; 64 g ai/ha^−1 postemergence): 0%; Average % Survival of 14 repetitions ([3]; 128 g ai/ha^−1 postemergence): 0% |
